How the values were obtained:
Type in all cases: cell-based
[1] = system: Serratia marcescens; assay: MIC against Gram-negative bacteria: Serratia marcescens; conditions: 96-well plate, 5×10^5 CFU/mL, 37° C., 10 h
In short: (§1)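 Bacteria grown in LB at 37° C to McFarland 0.5, resuspended and seeded at 5×10^5 CFU/mL in 96-well plates. Purified human EGF-domain proteins two-fold serially diluted, triplicate wells; cultured at 37° C, shaking 175 rpm. MIC = lowest protein concentration with no growth.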

[2] = system: Aeromonas hydrophila; assay: MIC against Gram-negative bacteria: Aeromonas hydrophila; conditions: 96-well plate, 5×10^5 CFU/mL, 37° C., 10 h
In short: as §1

[3] = system: Proteus mirabilis; assay: MIC against Gram-negative bacteria: Proteus mirabilis; conditions: 96-well plate, 5×10^5 CFU/mL, 37° C., 10 h
In short: as §1

[4] = system: Pseudomonas aeruginosa; assay: MIC against Gram-negative bacteria: Pseudomonas aeruginosa; conditions: 96-well plate, 5×10^5 CFU/mL, 37° C., 10 h
In short: as §1

[5] = system: Enterobacter cloacae; assay: MIC against Gram-negative bacteria: Enterobacter cloacae; conditions: 96-well plate, 5×10^5 CFU/mL, 37° C., 10 h
In short: as §1

[6] = system: E. coli BL21; assay: MIC against Gram-negative bacteria: E. coli BL21; conditions: 96-well plate, 5×10^5 CFU/mL, 37° C., 10 h
In short: as §1

[7] = system: Citrobacter diversus; assay: MIC against Gram-negative bacteria: Citrobacter diversus; conditions: 96-well plate, 5×10^5 CFU/mL, 37° C., 10 h
In short: as §1

[8] = system: Moraxella catarrhalis; assay: MIC against Gram-negative bacteria: Moraxella catarrhalis; conditions: 96-well plate, 5×10^5 CFU/mL, 37° C., 10 h
In short: as §1

[9] = system: Klebsiella pneumonia; assay: MIC against Gram-negative bacteria: Klebsiella pneumonia; conditions: 96-well plate, 5×10^5 CFU/mL, 37° C., 10 h
In short: as §1

[10] = system: Proteus vulgaris; assay: MIC against Gram-negative bacteria: Proteus vulgaris; conditions: 96-well plate, 5×10^5 CFU/mL, 37° C., 10 h
In short: as §1

[11] = system: E. coli DH5α; assay: Antibacterial activity: MIC and growth curve against E. coli DH5α in 96-well plate; conditions: minimal inhibitory concentration against E. coli DH5α; 96-well plate, 5×10^5 CFU/mL, 37° C., judged after 8 h
In short: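 MIC taken as lowest protein level with no bacterial growth, tracked by A600 every 30 min during 37 °C, 175 rpm culture. Two-fold protein series 50-12.5 μg/mL final, triplicate wells, against 5×10^5 CFU/mL of LB-washed mid-log cells.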

Substance	MIC against S. marcescens [1] [µg/mL]	MIC against A. hydrophila [2] [µg/mL]	MIC against P. mirabilis [3] [µg/mL]	MIC against P. aeruginosa [4] [µg/mL]	MIC against E. cloacae [5] [µg/mL]	MIC against E. coli BL21 [6] [µg/mL]	MIC against C. diversus [7] [µg/mL]	MIC against M. catarrhalis [8] [µg/mL]	MIC against K. pneumonia [9] [µg/mL]	MIC against P. vulgaris [10] [µg/mL]	MIC [11] [µg/mL]
PRT500 (CNCDPVGSLSSVCIKDDLHSDLHNGKQPGQCPCKEGYTGEKCDRCQLGYKDYPTCVS; listed as Homo sapiens)	25	50	25	25	25	50	25	12.5	12.5	50	25
PRT501 (CGCNPVGSASDEPCTGPCVCKENVEGKACDRCKPGFYNLKEKNPRGCSE; listed as Homo sapiens)	12.5	25	12.5	50	12.5	25	12.5	25	25	25	12.5
PRT502 (CECHGHAAECNVHGVCIACAHNTTGVHCEQCLPGFYGEPSRGTPGDCQP; listed as Homo sapiens)	25	12.5	12.5	12.5	12.5	12.5	12.5	12.5	12.5	50	25
PRT503 (CACPLTIASNNFSPTCHLNDGDEVVCDWCAPGYSGAWCERCADGYYGNPTVPGESCVP; listed as Homo sapiens)	50	25	50	50	12.5	25	50	12.5	25	12.5	12.5
PRT504 (CDCSGNVDPSEAGHCDSVTGECLKCLGNTDGAHCERCADGFYGDAVTAKNCRA; listed as Homo sapiens)	12.5	25	12.5	12.5	12.5	50	50	25	50	50	12.5
PRT505 (CECHVKGSHSAVCHLETGLCDCKPNVTGQQCDQCLHGYYGLDSGHGCRP; listed as Homo sapiens)	50	12.5	12.5	50	50	12.5	50	25	12.5	25	50
PRT506 (CNCSVAGSVSDGCTDEGQCHCVPGVAGKRCDRCAHGFYAYQDGSCTP; listed as Homo sapiens)	12.5	12.5	25	25	25	12.5	25	50	50	12.5	25
PRT507 (CICYGHARACPLDPATNKSRCECEHNTCGDSCDQCCPGFHQKPWRAGTFLTKTECEA; listed as Homo sapiens)	25	50	12.5	12.5	12.5	50	12.5	50	50	50	12.5
PRT508 (CECSHLGNNCDPKTGRCICPPNTIGEKCSKCAPNTWGHSITTGCKA; listed as Homo sapiens)	25	50	12.5	50	12.5	25	100	50	25	12.5	12.5
PRT509 (CNCSTVGSLDFQCNVNTGQCNCHPKFSGAKCTECSRGHWNYPRCNL; listed as Homo sapiens)	25	12.5	12.5	12.5	12.5	25	12.5	12.5	25	12.5	12.5
PRT510 (CDCFLPGTDATTCDSETKKCSCSDQTGQCTCKVNVEGIHCDRCRPGKFGLDAKNPLGCSS; listed as Homo sapiens)	12.5	25	50	12.5	50	25	12.5	25	25	25	50
PRT512 (CACPLISSSNNFSPSCVAEGLDDYRCTACPRGYEGQYCERCAPGYTGSPGNPGGSCQE; listed as Homo sapiens)	12.5	25	50	12.5	50	25	12.5	25	25	25	50
PRT513 (CECDPYGSLPVPCDPVTGFCTCRPGATGRKCDGCKHWHAREGWECVF; listed as Homo sapiens)	12.5	50	50	50	25	12.5	25	12.5	12.5	12.5	50
PRT515 (CHCDPIGSLNEVCVKDEKHARRGLAPGSCHCKTGFGGVSCDRCARGYTGYPDCKA; listed as Homo sapiens)	50	50	50	25	25	12.5	25	100	12.5	12.5	25
PRT516 (CNCSGLGSKNEDPCFGPCICKENVEGGDCSRCKSGFFNLQEDNWKGCDE; listed as Homo sapiens)	50	25	12.5	12.5	12.5	50	50	25	50	25	12.5
PRT517 (CQCFGHAESCDDVTGECLNCKDHTGGPYCDKCLPGFYGEPTKGTSEDCQP; listed as Homo sapiens)	25	12.5	25	25	25	12.5	25	50	50	12.5	25
